# Assays:
# ALDH1A3 = target: T1, ALDH1A3 (Homo sapiens, UniProt P47895); assay: Kinetic characteristics (Michaelis-Menten Km, Kcat) with ALDH1A3; format: biochemical; conditions: five minutes at 37° C., Tris buffer pH 7.5
# T1 construct: purchased
# T1 sequence (P47895 1-512): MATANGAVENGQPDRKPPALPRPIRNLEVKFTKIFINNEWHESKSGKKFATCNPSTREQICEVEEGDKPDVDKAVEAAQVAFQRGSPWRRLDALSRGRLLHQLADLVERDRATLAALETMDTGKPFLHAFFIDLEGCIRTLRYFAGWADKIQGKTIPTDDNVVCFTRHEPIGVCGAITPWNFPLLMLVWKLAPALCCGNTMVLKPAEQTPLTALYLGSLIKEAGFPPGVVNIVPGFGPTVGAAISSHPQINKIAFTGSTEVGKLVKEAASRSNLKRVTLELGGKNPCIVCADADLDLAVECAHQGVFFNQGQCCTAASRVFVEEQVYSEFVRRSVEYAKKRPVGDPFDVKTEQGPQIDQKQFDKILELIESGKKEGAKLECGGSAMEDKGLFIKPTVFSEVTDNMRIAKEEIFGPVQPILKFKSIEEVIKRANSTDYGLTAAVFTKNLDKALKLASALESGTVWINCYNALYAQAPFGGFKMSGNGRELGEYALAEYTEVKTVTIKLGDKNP
# Procedure: (§1) Human recombinant ALDH1A1/1A3/3A1 was purchased, and 100 mM of KCL, 2 mM of DTT, 1 mM of NAD(P), 10-100 nM of each ALDH, and 10-80 μM of each compound were mixed in Tris buffer (100 mM, pH 7.5), reacted for 30 minutes at 37° C., an equal amount of acetonitrile added, and the reaction stopped. The reaction solution was analyzed by UPLC/MS/MS (Waters). The UPCL chromatogram was carried out over five minutes at a flow rate of 800 μL/min by a linear gradient from 5% acetonitrile 0.01 M ammonium formate/water to 95% acetonitrile 0.01 M ammonium formate/water. An aldehyde-form and carboxylic acid-form probe were detected by the absorbance at a wavelength of 504 nm, and m/z of the MS spectrum at each peak was confirmed to agree with the expected m/z.
# (§2) For the reaction, 100 mM of KCL, 2 mM of DTT, 1 mM of NAD(P), and five to six concentrations within the range of 10-100 nM of each ALDH and 0.1-80 μM of each probe were selected, mixed in Tris buffer (100 mM, pH 7.5), and reacted for five minutes at 37° C.; an equal amount of acetonitrile was added, and the reaction was stopped. Detection of the aldehyde-form/carboxylic acid-form probes was carried out using the same method as described above by UPLC/MS/MS. Km and Kcat were calculated by fitting the reaction rate at each probe concentration obtained to the Michaelis-Menten equation. A Kaleida Graph ver. 4.1 (Hulinks, Inc.) was used in fitting.
# ALDH1A1 = target: T2, ALDH1A1 (Homo sapiens, UniProt P00352); assay: Kinetic characteristics (Michaelis-Menten Km, Kcat) with ALDH1A1; format: biochemical; conditions: five minutes at 37° C., Tris buffer pH 7.5
# T2 construct: purchased
# T2 sequence (P00352 1-501): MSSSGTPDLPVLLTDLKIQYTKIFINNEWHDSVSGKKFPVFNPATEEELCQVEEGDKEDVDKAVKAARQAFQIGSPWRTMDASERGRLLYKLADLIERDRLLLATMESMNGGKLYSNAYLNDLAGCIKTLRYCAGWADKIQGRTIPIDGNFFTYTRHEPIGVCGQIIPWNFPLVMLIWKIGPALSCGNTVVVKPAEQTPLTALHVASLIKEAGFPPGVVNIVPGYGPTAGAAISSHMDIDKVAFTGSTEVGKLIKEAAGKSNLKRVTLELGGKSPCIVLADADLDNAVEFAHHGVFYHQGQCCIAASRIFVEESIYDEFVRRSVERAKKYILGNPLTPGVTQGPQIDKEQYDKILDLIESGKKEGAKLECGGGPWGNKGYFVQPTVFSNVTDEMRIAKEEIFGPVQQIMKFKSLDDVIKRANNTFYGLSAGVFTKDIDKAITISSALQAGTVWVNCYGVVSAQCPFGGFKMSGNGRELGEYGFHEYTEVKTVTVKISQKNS
# Procedure: as §1, §2
substance,measurement,setting,value
"N-(4-formylbenzyl)-3-(1,3-dimethyl-4,4-difluoro-4-bora-3a,4a-diaza-s-indacen-5-yl)-propionamide [Probe 1]",Kcat ALDH1A3,ALDH1A3,0.029 ± 0.0015 s⁻¹
same,Km,ALDH1A3,1.64 ± 0.49 µM
same,Kcat ALDH1A1,ALDH1A1,1.36 ± 0.045 s⁻¹
same,Km,ALDH1A1,< 0.2 µM

# Source: patent US20200207989A1, “FLUORESCENT PROBE FOR ALDH3A1 DETECTION” (The University of Tokyo, priority 2016, published 2020)
